According to the NIST ThermoML archive (doi:10.1016/j.jct.2014.01.031):
± gives the expanded uncertainty stated by the source. Blank lines part the entries; values can stand above or below the compound they belong to.

Key:
[1] = xn = mol fraction of the nth substance listed; settings: 298.15 K, 101 kPa, Liquid; for electrical conductivity: Alternating current cell with electrodes; for viscosity: Falling or rolling sphere viscometry
[2] = 298.15 K, 101 kPa, Liquid; for electrical conductivity: Alternating current cell with electrodes; for viscosity: Falling or rolling sphere viscometry; for self diffusion coefficient: PFG NMR Spectroscopy

- electrical conductivity ([1]; x2 = 0): 0.126 ± 0.002 S/m
- electrical conductivity ([1]; x2 = 0.1999): 0.247 ± 0.003 S/m
- electrical conductivity ([1]; x2 = 0.4037): 0.4 ± 0.005 S/m
- electrical conductivity ([1]; x2 = 0.617): 0.799 ± 0.01 S/m
- electrical conductivity ([1]; x2 = 0.7937): 1.77 ± 0.021 S/m
- electrical conductivity ([1]; x2 = 0.9437): 3.42 ± 0.041 S/m
- electrical conductivity ([1]; x2 = 0.992): 1.92 ± 0.044 S/m
- electrical conductivity ([1]; x2 = 0.9977): 0.849 ± 0.039 S/m
- viscosity ([1]; x2 = 0): 223 ± 12 mPa·s
- viscosity ([1]; x2 = 0.1999): 112 ± 4 mPa·s
- viscosity ([1]; x2 = 0.4037): 63.1 ± 2.1 mPa·s
- viscosity ([1]; x2 = 0.617): 27.6 ± 1 mPa·s
- viscosity ([1]; x2 = 0.7937): 11.5 ± 0.4 mPa·s
SMILES: CCCCn1cc[n+](C)c1.COS(=O)(=O)[O-] [1-butyl-3-methylimidazolium methyl sulfate] + O

- electrical conductivity [2]: 0.126 ± 0.002 S/m
- viscosity [2]: 223 ± 12 mPa·s
- self diffusion coefficient [2]: 1.3e-11 m2/s
SMILES: CCCCn1cc[n+](C)c1.COS(=O)(=O)[O-] [1-butyl-3-methylimidazolium methyl sulfate]

- viscosity ([1]; x1 = 1): 0.89 ± 0.04 mPa·s
SMILES: O [water] + CCCCn1cc[n+](C)c1.COS(=O)(=O)[O-]

- electrical conductivity [2]: 0.547 ± 0.007 S/m
- viscosity [2]: 81.4 ± 2.7 mPa·s
- self diffusion coefficient [2]: 4.6e-11 m2/s
SMILES: CCn1cc[n+](C)c1.COS(=O)(=O)[O-] [1-ethyl-3-methylimidazolium methylsulfate]

- viscosity ([1]; x1 = 1): 0.89 ± 0.04 mPa·s
SMILES: O [water] + CCn1cc[n+](C)c1.COS(=O)(=O)[O-]

- viscosity [2]: 0.89 ± 0.04 mPa·s
- self diffusion coefficient [2]: 2.3e-09 m2/s
SMILES: O [water]

- electrical conductivity ([1]; x2 = 0): 0.547 ± 0.007 S/m
- electrical conductivity ([1]; x2 = 0.2542): 0.909 ± 0.011 S/m
- electrical conductivity ([1]; x2 = 0.4994): 1.6 ± 0.019 S/m
- electrical conductivity ([1]; x2 = 0.7519): 3.16 ± 0.038 S/m
- electrical conductivity ([1]; x2 = 0.8053): 3.99 ± 0.048 S/m
- electrical conductivity ([1]; x2 = 0.9249): 6.23 ± 0.075 S/m
- electrical conductivity ([1]; x2 = 0.9737): 4.58 ± 0.055 S/m
- viscosity ([1]; x2 = 0): 81.4 ± 2.7 mPa·s
- viscosity ([1]; x2 = 0.2542): 39.7 ± 1.3 mPa·s
- viscosity ([1]; x2 = 0.4994): 20.2 ± 0.7 mPa·s
- viscosity ([1]; x2 = 0.7519): 8.59 ± 0.31 mPa·s
- viscosity ([1]; x2 = 0.8053): 6.62 ± 0.25 mPa·s
- viscosity ([1]; x2 = 0.9249): 2.59 ± 0.1 mPa·s
- viscosity ([1]; x2 = 0.9737): 1.43 ± 0.06 mPa·s
SMILES: CCn1cc[n+](C)c1.COS(=O)(=O)[O-] [1-ethyl-3-methylimidazolium methylsulfate] + O
